IC50 data for 63 molecules are collected here from US12581252B2, “Substituted pyrrolo[3,4-b]pyridines as PI3K-α inhibitors” (Relay Therapeutics, Inc., priority 2020, dated 2026).

As a reminder, the IC50 is the point on the concentration scale where inhibition reaches its midpoint.

H1047R PIK3CA enzyme, sequence (P42336 whole entry H1047R): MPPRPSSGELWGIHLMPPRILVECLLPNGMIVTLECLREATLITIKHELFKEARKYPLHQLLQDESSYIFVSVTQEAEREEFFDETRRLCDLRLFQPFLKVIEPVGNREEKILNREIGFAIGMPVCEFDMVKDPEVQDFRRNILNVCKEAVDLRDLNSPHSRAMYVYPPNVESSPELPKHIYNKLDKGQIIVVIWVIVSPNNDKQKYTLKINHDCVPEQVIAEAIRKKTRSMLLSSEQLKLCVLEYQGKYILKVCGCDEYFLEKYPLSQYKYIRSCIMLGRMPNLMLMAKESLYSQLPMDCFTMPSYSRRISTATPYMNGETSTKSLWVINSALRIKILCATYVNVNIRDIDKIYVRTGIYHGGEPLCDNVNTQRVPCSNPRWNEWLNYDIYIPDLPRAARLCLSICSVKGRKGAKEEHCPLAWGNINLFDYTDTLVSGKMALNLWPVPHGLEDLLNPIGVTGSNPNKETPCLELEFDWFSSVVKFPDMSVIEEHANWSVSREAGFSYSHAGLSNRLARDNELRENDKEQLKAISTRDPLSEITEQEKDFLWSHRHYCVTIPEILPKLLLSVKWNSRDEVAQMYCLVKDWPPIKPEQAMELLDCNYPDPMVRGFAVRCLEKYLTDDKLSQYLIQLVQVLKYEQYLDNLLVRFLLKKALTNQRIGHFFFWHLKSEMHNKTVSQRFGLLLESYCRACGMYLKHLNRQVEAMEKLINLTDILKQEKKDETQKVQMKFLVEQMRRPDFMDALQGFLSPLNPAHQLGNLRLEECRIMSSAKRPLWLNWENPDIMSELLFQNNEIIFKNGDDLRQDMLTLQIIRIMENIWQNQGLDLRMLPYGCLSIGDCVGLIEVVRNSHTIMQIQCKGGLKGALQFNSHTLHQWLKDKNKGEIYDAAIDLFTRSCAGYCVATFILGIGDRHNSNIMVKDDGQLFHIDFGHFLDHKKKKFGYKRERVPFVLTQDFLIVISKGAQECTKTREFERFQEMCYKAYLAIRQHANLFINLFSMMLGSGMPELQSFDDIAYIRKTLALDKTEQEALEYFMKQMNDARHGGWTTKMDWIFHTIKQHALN
H1047R PIK3CA enzyme, sequence (P27986 whole entry partner): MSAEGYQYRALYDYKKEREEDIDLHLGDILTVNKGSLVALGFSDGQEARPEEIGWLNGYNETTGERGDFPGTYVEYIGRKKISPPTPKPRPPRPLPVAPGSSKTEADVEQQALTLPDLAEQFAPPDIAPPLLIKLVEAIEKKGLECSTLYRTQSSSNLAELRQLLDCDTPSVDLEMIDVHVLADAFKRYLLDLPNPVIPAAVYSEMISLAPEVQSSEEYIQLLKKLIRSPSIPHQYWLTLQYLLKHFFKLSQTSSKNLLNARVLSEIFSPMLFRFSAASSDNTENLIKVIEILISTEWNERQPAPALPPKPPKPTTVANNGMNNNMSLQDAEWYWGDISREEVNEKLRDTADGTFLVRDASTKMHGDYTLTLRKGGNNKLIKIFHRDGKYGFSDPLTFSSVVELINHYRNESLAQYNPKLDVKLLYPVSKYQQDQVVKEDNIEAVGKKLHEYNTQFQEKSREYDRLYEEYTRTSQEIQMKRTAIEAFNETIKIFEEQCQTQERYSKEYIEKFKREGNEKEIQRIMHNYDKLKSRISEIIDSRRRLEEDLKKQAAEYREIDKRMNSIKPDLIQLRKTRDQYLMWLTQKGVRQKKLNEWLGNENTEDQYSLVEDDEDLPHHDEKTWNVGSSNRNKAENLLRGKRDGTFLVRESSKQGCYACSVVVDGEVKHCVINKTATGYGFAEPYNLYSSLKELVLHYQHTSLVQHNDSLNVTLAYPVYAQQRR

The test concerns the target H1047R PIK3CA enzyme (Homo sapiens, UniProt P42336, H1047R). As to the kind of experiment: ADP-Glo Biochemical PIK3CA Kinase Assay.
`Cn1nc(Nc2cc(-c3ccc4ncnn4c3)cc3c2C(c2cc(F)ccc2Cl)NC3=O)c2cc(F)cc(C(F)(F)F)c21` (stereo not drawn) [Compound I-2050] yielded an IC50 of 0.5 to 1 µM.

`O=C(Nc1cccc2c1[C@H](C1CCCCC1)NC2=O)c1cc(F)cc(C(F)(F)F)c1` [Compound I-2052] had a half-maximal inhibitory concentration (IC50) of 1 to 10 µM.

In the case of `O=C(Nc1cccc2c1[C@@H](C1CCCCC1)NC2=O)c1cc(F)cc(C(F)(F)F)c1` [Compound I-2053], the IC50 was in the range of 10 to 100 µM.

In the case of `O=C(Nc1cccc2c1C(C(=O)NC1CCCCC1)NC2=O)c1cc(F)cc(C(F)(F)F)c1` (stereo not drawn) [Compound I-2054], the IC50 was 10 to 100 µM.

`O=C(Nc1cc(-c2cnn(S(=O)(=O)C(F)F)c2)cc2c1C(c1cc(F)ccc1Cl)NC2=O)c1cc(F)cc(C(F)(F)F)c1` (stereo not drawn) [Compound I-2055] came in with an IC50 of no more than 0.1 µM.

Turning to `O=C1NC(c2cc(F)ccc2Cl)c2c(Nc3cn[nH]c3)cc(Br)cc21` (stereo not drawn) [Compound I-2056], the IC50 fell in the range of 10 to 100 µM.

In turn, `O=C(Nc1cccc2c1[C@@H](CC1CCCCC1)NC2=O)c1cc(F)cc(C(F)(F)F)c1` [Compound I-2057] yielded an IC50 of 1 to 10 µM.

In turn, `O=C(Nc1cccc2c1[C@H](CC1CCCCC1)NC2=O)c1cc(F)cc(C(F)(F)F)c1` [Compound I-2058] came in with an IC50 of 0.5 to 1 µM.

As for `O=C1NC(c2cc(F)ccc2Cl)c2c(Nc3nnc4n3CCCC4)cc(-c3ccc4ncnn4c3)cc21` (stereo not drawn) [Compound I-2059], the IC50 was 10 to 100 µM.

`O=C(Nc1cccc2c1C(C1CCCCC1O)NC2=O)c1cc(F)cc(C(F)(F)F)c1` (stereo not drawn) [Compound I-2060]: the half-maximal inhibitory concentration (IC50) lay in the range of 10 to 100 µM.

`O=C(Nc1cc(OCC(F)F)cc2c1[C@@H](c1cc(F)ccc1Cl)NC2=O)c1cc(F)cc(C(F)(F)F)c1` [Compound I-2061] returned an IC50 of 1 to 10 µM.

Consider `O=C(Nc1cc(OCC(F)F)cc2c1[C@H](c1cc(F)ccc1Cl)NC2=O)c1cc(F)cc(C(F)(F)F)c1` [Compound I-2062], for which the IC50 is no more than 0.1 µM.

On to `N#Cc1c(-c2cc(NC(=O)c3cc(F)cc(Cl)c3)c3c(c2)C(=O)N[C@H]3c2cc(F)ccc2Cl)ccc2ncnn12` [Compound I-2063], for which the IC50 fell in the range of 0.5 to 1 µM.

Take `N#Cc1c(-c2cc(NC(=O)c3cc(F)cc(Cl)c3)c3c(c2)C(=O)N[C@@H]3c2cc(F)ccc2Cl)ccc2ncnn12` [Compound I-2064]: the IC50 is no more than 0.1 µM.

As to `O=C(Nc1cc(-c2cn3cc(C(F)F)nc3cn2)cc2c1C(c1cc(F)ccc1Cl)NC2=O)c1cc(F)cc(C(F)(F)F)c1` (stereo not drawn) [Compound I-2065], the IC50 is no more than 0.1 µM.

As for `[2H]c1nc2cnc(-c3cc(NC(=O)c4cc(F)cc(C(F)(F)F)c4)c4c(c3)C(=O)N[C@@H]4c3cc(F)ccc3Cl)cn2n1` [Compound I-2068], the IC50 lay in the range of 1 to 10 µM.

The molecule `[2H]c1nc2cnc(-c3cc(NC(=O)c4cc(F)cc(C(F)(F)F)c4)c4c(c3)C(=O)N[C@H]4c3cc(F)ccc3Cl)cn2n1` [Compound I-2069] had an IC50 of no more than 0.1 µM.

For `O=C1N[C@H](c2cc(F)ccc2Cl)c2c(NC(=O)C3(c4cc(F)cc(C(F)(F)F)c4)CCCC3)cc(Br)cc21` [Compound I-2070], the IC50 lay in the range of 10 to 100 µM.

`O=C1N[C@@H](c2cc(F)ccc2Cl)c2c(NC(=O)C3(c4cc(F)cc(C(F)(F)F)c4)CCCC3)cc(Br)cc21` [Compound I-2071] returned an IC50 of 10 to 100 µM.

For `O=C(Nc1cccc2c1[C@@H](C1CCC(F)(F)CC1)NC2=O)c1cc(F)cc(C(F)(F)F)c1` [Compound I-2072], the IC50 was 10 to 100 µM.

In turn, `O=C(Nc1cccc2c1[C@H](C1CCC(F)(F)CC1)NC2=O)c1cc(F)cc(C(F)(F)F)c1` [Compound I-2073] returned an IC50 of 10 to 100 µM.

`O=C(Nc1cccc2c1C(C1NC3CCC1C3)NC2=O)c1cc(F)cc(C(F)(F)F)c1` (stereo not drawn) [Compound I-2076] displayed a 50% inhibitory concentration (IC50) of 10 to 100 µM.

As for `O=C(Nc1cccc2c1C(N1CCC(F)(F)CC1)NC2=O)c1cc(F)cc(C(F)(F)F)c1` (stereo not drawn) [Compound I-2077], the IC50 fell in the range of 1 to 10 µM.

Take `O=C1NC(c2cc(F)ccc2Cl)c2c(NC3CCCS(=O)(=O)C3)cc(-c3ccc4ncnn4c3)cc21` (stereo not drawn) [Compound I-2078]: the IC50 was in the range of 10 to 100 µM.

Molecule `O=C1NC(c2cc(F)ccc2Cl)c2c(NC(=O)[C@H]3CCC[C@@H](C(F)(F)F)C3)cccc21` (stereo partly drawn) [Compound I-2079] gave an IC50 of 0.5 to 1 µM.

In turn, `O=C1NC(c2cc(F)ccc2Cl)c2c(NC(=O)[C@H]3C[C@H](O)C[C@@H](C(F)(F)F)C3)cc(Br)cc21` (stereo partly drawn) [Compound I-2080] yielded an IC50 of 1 to 10 µM.

In the case of `O=C1N[C@@H](c2cc(F)ccc2Cl)c2c(N[C@@H]3CCOc4ccccc43)cc(-c3cnn(C(F)F)c3)nc21` [Compound I-2081], the IC50 was 1 to 10 µM.

Consider `O=C1N[C@@H](c2cc(F)ccc2Cl)c2c(N[C@H]3CCOc4ccccc43)cc(-c3cnn(C(F)F)c3)nc21` [Compound I-2082], for which the IC50 fell in the range of 10 to 100 µM.

The molecule `O=C1N[C@H](c2cc(F)ccc2Cl)c2c(NC(=O)[C@H]3CC[C@@H](C(F)(F)F)C3)cccc21` [Compound I-2083] showed an IC50 of 10 to 100 µM.

Regarding `O=C1N[C@H](c2cc(F)ccc2Cl)c2c(NC(=O)[C@@H]3CC[C@H](C(F)(F)F)C3)cccc21` [Compound I-2084], the IC50 lay within 10 to 100 µM.

In turn, `O=C1N[C@@H](c2cc(F)ccc2Cl)c2c(NC(=O)[C@H]3CC[C@@H](C(F)(F)F)C3)cccc21` [Compound I-2085] had an IC50 of 1 to 10 µM.

`O=C1N[C@@H](c2cc(F)ccc2Cl)c2c(NC(=O)[C@@H]3CC[C@H](C(F)(F)F)C3)cccc21` [Compound I-2086] had an IC50 of 1 to 10 µM.

Turning to `O=C(Nc1cccc2c1C(c1cc(F)ccc1Cl)NC2=O)c1cc(F)cc(B(O)O)c1` (stereo not drawn) [Compound I-2087], the IC50 lay in the range of 10 to 100 µM.

`N#Cc1cc(-c2ccc(=O)[nH]c2)cc2c1C(c1cc(F)ccc1Cl)NC2=O` (stereo not drawn) [Compound I-2089] returned a concentration for half-maximal inhibition (IC50) of 10 to 100 µM.

As to `O=C(Nc1cc(C2=CN3CCN=C3C=C2)cc2c1[C@H](c1cc(F)ccc1Cl)NC2=O)c1cc(F)cc(C(F)(F)F)c1` [Compound I-2090], the IC50 was no more than 0.1 µM.

`O=C(Nc1cc(C2=CN3CCN=C3C=C2)cc2c1[C@@H](c1cc(F)ccc1Cl)NC2=O)c1cc(F)cc(C(F)(F)F)c1` [Compound I-2091] gave an IC50 of 0.5 to 1 µM.

In turn, `O=C(Nc1cc(-c2cnn(S(=O)(=O)C(F)F)c2)cc2c1[C@@H](c1cc(F)ccc1Cl)NC2=O)c1cc(F)cc(C(F)(F)F)c1` [Compound I-2092] displayed an IC50 of 0.1 to 0.5 µM.

In the case of `O=C(Nc1cc(-c2cnn(S(=O)(=O)C(F)F)c2)cc2c1[C@H](c1cc(F)ccc1Cl)NC2=O)c1cc(F)cc(C(F)(F)F)c1` [Compound I-2093], the IC50 is no more than 0.1 µM.

Turning to `O=C(NCCC(O)C(F)(F)F)c1cccc2c1C(c1cc(F)ccc1Cl)NC2=O` (stereo not drawn) [Compound I-2094], the IC50 lay in the range of 10 to 100 µM.

`Cn1c(Cl)cc(C(=O)Nc2cc(Br)cc3c2[C@H](c2cc(F)ccc2Cl)NC3=O)cc1=O` [Compound I-2095] gave an IC50 of 10 to 100 µM.

On to `Cn1c(Cl)cc(C(=O)Nc2cc(Br)cc3c2[C@@H](c2cc(F)ccc2Cl)NC3=O)cc1=O` [Compound I-2096], for which the IC50 is 10 to 100 µM.

In turn, `O=C1NC(c2cc(F)ccc2Cl)c2c(C#Cc3ccccc3)cccc21` (stereo not drawn) [Compound I-2097] showed an IC50 of 10 to 100 µM.

Molecule `CN(C)S(=O)(=O)c1cc(-c2ccc3ncnn3c2)cc2c1[C@@H](c1cc(F)ccc1Cl)NC2=O` [Compound I-2098] yielded an IC50 of 10 to 100 µM.

Consider `CN(C)S(=O)(=O)c1cc(-c2ccc3ncnn3c2)cc2c1[C@H](c1cc(F)ccc1Cl)NC2=O` [Compound I-2099], for which the IC50 was 10 to 100 µM.

For `NS(=O)(=O)c1cc(-c2ccc3ncnn3c2)cc2c1[C@@H](c1cc(F)ccc1Cl)NC2=O` [Compound I-2100], the IC50 lay within 10 to 100 µM.

Consider `NS(=O)(=O)c1cc(-c2ccc3ncnn3c2)cc2c1[C@H](c1cc(F)ccc1Cl)NC2=O` [Compound I-2101], for which the IC50 is 10 to 100 µM.

For `O=C1NC(c2cc(F)ccc2Cl)c2c(/C=C/c3ccccc3)cccc21` (stereo not drawn) [Compound I-2106], the IC50 is 10 to 100 µM.

`Cc1cc(=O)[nH]cc1C(=O)Nc1cc(Br)cc2c1[C@@H](c1cc(F)ccc1Cl)NC2=O` [Compound I-2107] yielded an IC50 of 10 to 100 µM.

Regarding `Cc1cc(=O)[nH]cc1C(=O)Nc1cc(Br)cc2c1[C@H](c1cc(F)ccc1Cl)NC2=O` [Compound I-2108], the IC50 is 10 to 100 µM.

In turn, `O=C(Nc1cccc2c1C(CC1CCCC1)NC2=O)c1cc(F)cc(C(F)(F)F)c1` (stereo not drawn) [Compound I-2109] gave an IC50 of 1 to 10 µM.

The molecule `O=C1NC(c2cc(F)ccc2Cl)c2c(NC(=O)N3CCn4c(nnc4C(F)(F)F)C3)cccc21` (stereo not drawn) [Compound I-2111] registered an IC50 of 10 to 100 µM.

`O=C(Nc1cccc2c1C(c1cc(F)ccc1Cl)NC2=O)c1ncc(Br)s1` (stereo not drawn) [Compound I-2112] displayed a half-maximal inhibitory concentration (IC50) of 10 to 100 µM.

`CC(C)(O)C12CC(C(=O)Nc3cccc4c3C(c3cc(F)ccc3Cl)NC4=O)(C1)C2` (stereo not drawn) [Compound I-2117] had an IC50 of 10 to 100 µM.

For the molecule `O=C1NC(c2cc(F)ccc2Cl)c2c(NC(=O)C34CC(C(O)(C5CC5)C5CC5)(C3)C4)cccc21` (stereo not drawn) [Compound I-2118], the IC50 lay within 10 to 100 µM.

As for `O=C(CCC(F)(F)F)Nc1cccc2c1[C@@H](c1cc(F)ccc1Cl)NC2=O` [Compound I-2119], the IC50 was in the range of 10 to 100 µM.

`O=C(CCC(F)(F)F)Nc1cccc2c1[C@H](c1cc(F)ccc1Cl)NC2=O` [Compound I-2120] gave an IC50 of 10 to 100 µM.

As to `O=C(Nc1cc(OCC2CC2)cc2c1C(c1cc(F)ccc1Cl)NC2=O)c1cc(F)cc(C(F)(F)F)c1` (stereo not drawn) [Compound I-2134], the IC50 was 0.1 to 0.5 µM.

In the case of `O=C1NC(c2cc(F)ccc2Cl)c2c1cc(-c1cnn(C(F)F)c1)cc2-c1cn2ccc(C(F)(F)F)cc2n1` (stereo not drawn) [Compound I-2135], the IC50 was 1 to 10 µM.

In turn, `O=C1NC(c2cc(F)ccc2Cl)c2c(NC(=O)C3CCCC(O)(C(F)(F)F)C3)cccc21` (stereo not drawn) [Compound I-2136] returned an IC50 of 10 to 100 µM.

In turn, `O=C(Nc1cc(-c2ccnc(C(=O)O)c2)cc2c1C(c1cc(F)ccc1Cl)NC2=O)c1cc(F)cc(C(F)(F)F)c1` (stereo not drawn) [Compound I-2137] came in with an IC50 of no more than 0.1 µM.

The molecule `C[C@@H](CCC(F)(F)F)C(=O)Nc1cccc2c1[C@H](c1cc(F)ccc1Cl)NC2=O` [Compound I-2138] had an IC50 of 1 to 10 µM.

With `C[C@H](CCC(F)(F)F)C(=O)Nc1cccc2c1[C@H](c1cc(F)ccc1Cl)NC2=O` [Compound I-2139], the IC50 lay within 10 to 100 µM.

The molecule `C[C@H](CCC(F)(F)F)C(=O)Nc1cccc2c1[C@@H](c1cc(F)ccc1Cl)NC2=O` [Compound I-2140] yielded an IC50 of 10 to 100 µM.
